Measured values taken from ChEMBL document CHEMBL1201862, “PubChem BioAssay data set” (2004).
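Interpolation was linear, between the two tested concentrations surrounding the appropriate level; five concentrations were tested over 48 hours in 96-well plates. GI50: concentration for 50% inhibition of growth.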 Active and inactive are the calls of the source. No stated cut-off is given here; in the data, active = GI50 up to about 1.1 µM and inactive = higher.

Assays:
Test in all cases: DTP human tumour cell line panel, 48 h
786-0 = test system: 786-0
A549 = test system: A549
DU-145 = test system: DU-145
EKVX = test system: EKVX
HL-60 = test system: HL-60
HOP-62 = test system: HOP-62
Hs-578T = test system: Hs-578T
K562 = test system: K562
NCI-H23 = test system: NCI-H23
OVCAR-3 = test system: OVCAR-3
OVCAR-4 = test system: OVCAR-4
OVCAR-8 = test system: OVCAR-8
PC-3 = test system: PC-3
SF-268 = test system: SF-268
SF-295 = test system: SF-295
SK-OV-3 = test system: SK-OV-3
SNB-19 = test system: SNB-19
SR = test system: SR
UO-31 = test system: UO-31
CAKI-1 = test system: CAKI-1

Row | SMILES | GI50 (786-0) | GI50 (A549) | GI50 (DU-145) | GI50 (EKVX) | GI50 (HL-60) | GI50 (HOP-62) | GI50 (Hs-578T) | GI50 (K562) | GI50 (NCI-H23) | GI50 (OVCAR-3) | GI50 (OVCAR-4) | GI50 (OVCAR-8) | GI50 (PC-3) | GI50 (SF-268) | GI50 (SF-295) | GI50 (SK-OV-3) | GI50 (SNB-19) | GI50 (SR) | GI50 (UO-31) | GI50 (CAKI-1)
1 | COc1cc2cc(C(=O)N3CC(CCl)c4c3cc(O)c3ccccc43)[nH]c2c(OC)c1OC (stereo not drawn) | < 0.005 µM (active) | < 0.005 µM (active) | < 0.005 µM (active) | < 0.005 µM (active) | < 0.005 µM (active) | < 0.005 µM (active) | < 0.005 µM (active) | < 0.005 µM (active) | < 0.005 µM (active) | < 0.005 µM (active) | < 0.005 µM (active) | < 0.005 µM (active) | < 0.005 µM (active) | < 0.005 µM (active) | < 0.005 µM (active) | < 0.005 µM (active) | < 0.005 µM (active) | < 0.005 µM (active) | < 0.005 µM (active) | 
2 | OC(CC(CC(O)(C(F)(F)F)C(F)(F)F)=NN=C(CC(O)(C(F)(F)F)C(F)(F)F)CC(O)(C(F)(F)F)C(F)(F)F)(C(F)(F)F)C(F)(F)F | > 10 µM (inactive) | > 10 µM (inactive) | > 10 µM (inactive) | > 10 µM (inactive) | > 10 µM (inactive) | > 10 µM (inactive) | > 10 µM (inactive) | > 10 µM (inactive) | > 10 µM (inactive) | > 10 µM (inactive) | > 10 µM (inactive) | > 10 µM (inactive) | > 10 µM (inactive) | > 10 µM (inactive) | > 10 µM (inactive) | > 10 µM (inactive) | > 10 µM (inactive) | > 10 µM (inactive) |  | > 10 µM (inactive)
3 | CN1C(=O)C(O)CC1c1cccc(C(F)(F)F)c1 (stereo not drawn) | > 100 µM (inactive) | > 100 µM (inactive) | > 100 µM (inactive) | > 100 µM (inactive) | > 100 µM (inactive) | > 100 µM (inactive) | > 100 µM (inactive) | > 100 µM (inactive) | > 100 µM (inactive) | > 100 µM (inactive) | > 100 µM (inactive) | > 100 µM (inactive) | > 100 µM (inactive) | > 100 µM (inactive) | > 100 µM (inactive) | > 100 µM (inactive) | > 100 µM (inactive) |  | > 100 µM (inactive) | > 100 µM (inactive)
4 | Nc1nc(Nc2ccc(Cl)cc2)sc1C(=O)c1cccs1 | 11.8 µM (inactive) | 27.9 µM (inactive) | 78.9 µM (inactive) | 20 µM (inactive) | > 100 µM (inactive) | 25.6 µM (inactive) | 15.2 µM (inactive) |  | 29.2 µM (inactive) | 5.57 µM (inactive) | 25.9 µM (inactive) |  | > 100 µM (inactive) | 28.7 µM (inactive) |  | 22.9 µM (inactive) | 19.9 µM (inactive) | 2.4 µM (inactive) | 17 µM (inactive) | 
5 | Cn1c(=O)c2c(nc(N3CCOCC3)n2CCCNCC(O)c2ccc(O)c(O)c2)n(C)c1=O (stereo not drawn) | > 100 µM (inactive) | > 100 µM (inactive) | > 100 µM (inactive) | > 100 µM (inactive) |  | > 100 µM (inactive) | > 100 µM (inactive) | > 100 µM (inactive) | > 100 µM (inactive) | > 100 µM (inactive) | > 100 µM (inactive) | 25.4 µM (inactive) | > 100 µM (inactive) | > 100 µM (inactive) | > 100 µM (inactive) | > 100 µM (inactive) | > 100 µM (inactive) | 10 µM (inactive) | > 100 µM (inactive) | > 100 µM (inactive)
6 | O=[N+]([O-])c1ccc(OP(=O)(O)OCC2OC(CP(=O)(O)O)C(O)C2O)cc1 (stereo not drawn) | > 100 µM (inactive) | > 100 µM (inactive) | > 100 µM (inactive) | > 100 µM (inactive) | > 100 µM (inactive) | > 100 µM (inactive) | > 100 µM (inactive) | > 100 µM (inactive) | > 100 µM (inactive) | > 100 µM (inactive) | > 100 µM (inactive) | > 100 µM (inactive) | > 100 µM (inactive) | > 100 µM (inactive) | > 100 µM (inactive) |  | > 100 µM (inactive) | > 100 µM (inactive) | > 100 µM (inactive) | > 100 µM (inactive)
7 | CC(=O)Nc1ccc2cc3[nH]c4cc(NC(C)=O)ccc4c3nc2c1 | > 100 µM (inactive) | > 100 µM (inactive) | > 100 µM (inactive) | > 100 µM (inactive) |  | > 100 µM (inactive) | > 100 µM (inactive) | 77.1 µM (inactive) | > 100 µM (inactive) | > 100 µM (inactive) | > 100 µM (inactive) | > 100 µM (inactive) | > 100 µM (inactive) | > 100 µM (inactive) | > 100 µM (inactive) | > 100 µM (inactive) | > 100 µM (inactive) | 61.1 µM (inactive) | > 100 µM (inactive) | > 100 µM (inactive)
8 | O=C(CC(=O)N1N=C(c2ccccc2)C(/N=N/c2ccc(S(=O)(=O)CCOS(=O)(=O)O)cc2)C1=O)Nc1ccc(Cl)cc1 (stereo not drawn) | > 100 µM (inactive) | > 100 µM (inactive) | > 100 µM (inactive) | > 100 µM (inactive) | > 100 µM (inactive) | > 100 µM (inactive) | 20.6 µM (inactive) | 7.5 µM (inactive) | > 100 µM (inactive) | > 100 µM (inactive) |  | > 100 µM (inactive) | > 100 µM (inactive) | > 100 µM (inactive) | > 100 µM (inactive) | > 100 µM (inactive) | > 100 µM (inactive) | > 100 µM (inactive) | 40.3 µM (inactive) | > 100 µM (inactive)
9 | COC(CNC(=O)CNC(=O)c1ccc(C(F)(F)F)cc1)OC | > 100 µM (inactive) | > 100 µM (inactive) | > 100 µM (inactive) | > 100 µM (inactive) | > 100 µM (inactive) |  | > 100 µM (inactive) | > 100 µM (inactive) | > 100 µM (inactive) |  |  | > 100 µM (inactive) | > 100 µM (inactive) | > 100 µM (inactive) | > 100 µM (inactive) | > 100 µM (inactive) | 47.9 µM (inactive) | > 100 µM (inactive) | > 100 µM (inactive) | > 100 µM (inactive)
10 | CCNC(=S)N/N=C/c1cc([N+](=O)[O-])ccc1O | 20.5 µM (inactive) | 33.4 µM (inactive) | 83.4 µM (inactive) | 30.4 µM (inactive) | 11.9 µM (inactive) | 32.7 µM (inactive) | 70.5 µM (inactive) | 20.6 µM (inactive) | 41.6 µM (inactive) |  | 15.6 µM (inactive) | 18 µM (inactive) | 28.3 µM (inactive) | 24.3 µM (inactive) | 35.6 µM (inactive) | 15 µM (inactive) | 34.1 µM (inactive) | 10.9 µM (inactive) | 22.3 µM (inactive) | 
11 | O=C(/C=C/c1ccc2c(c1)OCO2)c1ccccc(=O)c1O | 8.32 µM (inactive) |  | 17.3 µM (inactive) | 20.7 µM (inactive) |  | 20.9 µM (inactive) | 7.8 µM (inactive) | 6.84 µM (inactive) |  | 10.7 µM (inactive) | 26.5 µM (inactive) | 4.3 µM (inactive) | 21.5 µM (inactive) | 3.42 µM (inactive) |  |  | 8.71 µM (inactive) | > 100 µM (inactive) | 13.6 µM (inactive) | 5.98 µM (inactive)
12 | O=C1NC(=O)C(c2c[nH]c3ccccc23)=C1c1cn(C(c2ccccc2)(c2ccccc2)c2ccccc2)cn1 | 6.52 µM (inactive) | 3.14 µM (inactive) | 19.6 µM (inactive) | 4.19 µM (inactive) | 2.9 µM (inactive) |  | 20.8 µM (inactive) | 4.2 µM (inactive) | 6.35 µM (inactive) | 6.76 µM (inactive) | 4.06 µM (inactive) | 5.33 µM (inactive) | 2.58 µM (inactive) | 11.7 µM (inactive) | 5.27 µM (inactive) | 14.7 µM (inactive) | 11.3 µM (inactive) | 2.7 µM (inactive) |  | 35.4 µM (inactive)
13 | C[C@]12CCC(=O)C=C1CC[C@@H]1[C@@H]2CC[C@]2(C)C(=O)/C(=C/c3ccc([N+](=O)[O-])cc3)C[C@@H]12 | 18.6 µM (inactive) | 8.36 µM (inactive) | 0.824 µM (active) | 17.1 µM (inactive) | 3.51 µM (inactive) | 49.8 µM (inactive) | > 100 µM (inactive) | 3.35 µM (inactive) | 27.8 µM (inactive) | 8.91 µM (inactive) |  | 45.8 µM (inactive) | 7.87 µM (inactive) | 83.6 µM (inactive) | 63.7 µM (inactive) | > 100 µM (inactive) | > 100 µM (inactive) | 2.9 µM (inactive) | 3.45 µM (inactive) | 8.95 µM (inactive)
14 | COc1cc2c(cc1OC)C1CCc3ccccc3CN1CC2 (stereo not drawn) | > 100 µM (inactive) | > 100 µM (inactive) | > 100 µM (inactive) | > 100 µM (inactive) | > 100 µM (inactive) | > 100 µM (inactive) | > 100 µM (inactive) | > 100 µM (inactive) | > 100 µM (inactive) | > 100 µM (inactive) | > 100 µM (inactive) | > 100 µM (inactive) | > 100 µM (inactive) | > 100 µM (inactive) | > 100 µM (inactive) | > 100 µM (inactive) | > 100 µM (inactive) | > 100 µM (inactive) |  | > 100 µM (inactive)
15 | O=C(O)CCC(/N=C(\C(=N\C(CCC(=O)O)C(=O)O)c1ccccc1)c1ccccc1)C(=O)O (stereo not drawn) | > 100 µM (inactive) | > 100 µM (inactive) | > 100 µM (inactive) | > 100 µM (inactive) |  | > 100 µM (inactive) | > 100 µM (inactive) | > 100 µM (inactive) | > 100 µM (inactive) | > 100 µM (inactive) | > 100 µM (inactive) | > 100 µM (inactive) | > 100 µM (inactive) | > 100 µM (inactive) | > 100 µM (inactive) | > 100 µM (inactive) | > 100 µM (inactive) | > 100 µM (inactive) | > 100 µM (inactive) | 
